Reference: publication PMC8422164, “A comparison of three mucus-secreting airway cell lines (Calu-3, SPOC1 and UNCN3T) for use as biopharmaceutical models of the nose and lung” (European Journal of Pharmaceutics and Biopharmaceutics, 2021)

Legend:
Calu-3 cells = assay: Enhancement of mucin secretion using AMP-PNP (Secretagogue model), ELLA, Calu-3; type: cell-based, human; conditions: Calu-3, AMP-PNP 100 μM, apical
Method: Cells cultured on inserts were arbitrarily divided into two groups termed 'low mucus' and 'high mucus'. […] Plates were kept on a shock-absorbing foam pad to prevent inadvertent mechanical stimulation of mucin secretion. […] Washes were stored at 4 °C until mucin secretion could be determined using an ELLA (on the day of treatment). At 10, 20 and 30 min, three further washes were performed and the average mucin content used to establish baseline mucin secretion. […] Each AMP-PNP/TB apical solution was changed (“like for like”) at 10-minute intervals. […] Wells were then washed three times with phosphate buffered saline (PBS) containing 0.05 % v/v Tween, 0.5 % w/v bovine gelatin type B (Sigma Aldrich), and blocked by incubation with PBS containing 1.0 % w/v gelatin at 37 °C for 1 h. […] Wells with samples from UNC[…] cells were incubated with biotinylated-Helix pomatia agglutinin prepared in the blocking solution. These wells were then washed before incubation with HRP-labelled streptavidin. […] The absorbance at 492 nm was measured using an Ascent MultiskanTM plate reader (Thermo Fisher Scientific). The absorbance of the samples was compared with known mucin standards, purified by two rounds of density gradient ultracentrifugation, as described by […] et al., from the sputum of a volunteer with chronic obstructive pulmonary disease. […]

UNCN3T cells [1] = assay: Enhancement of mucin secretion using AMP-PNP (Secretagogue model), ELLA, UNCN3T; type: cell-based, human
Method: Cells cultured on inserts were arbitrarily divided into two groups termed 'low mucus' and 'high mucus'. […] Plates were kept on a shock-absorbing foam pad to prevent inadvertent mechanical stimulation of mucin secretion. […] Washes were stored at 4 °C until mucin secretion could be determined using an ELLA (on the day of treatment). At 10, 20 and 30 min, three further washes were performed and the average mucin content used to establish baseline mucin secretion. […] Each AMP-PNP/TB apical solution was changed (“like for like”) at 10-minute intervals. […] Wells were then washed three times with phosphate buffered saline (PBS) containing 0.05 % v/v Tween, 0.5 % w/v bovine gelatin type B (Sigma Aldrich), and blocked by incubation with PBS containing 1.0 % w/v gelatin at 37 °C for 1 h. […] Wells with samples from UNC[…] cells were incubated with biotinylated-Helix pomatia agglutinin prepared in the blocking solution. These wells were then washed before incubation with HRP-labelled streptavidin. Finally, plates containing samples from all cell lines were washed repeatedly and developed by the addition of substrate solution which consisted of o-phenylene diamine (Sigma […] tablet) prepared according to manufacturer's instructions, for 3 min at room temperature, after which the reaction was terminated by the addition of 20% (v/v) H2SO4. The absorbance at 492 nm was measured using an Ascent MultiskanTM plate reader (Thermo Fisher Scientific). The absorbance of the samples was compared with known mucin standards, purified by two rounds of density gradient ultracentrifugation, as described by […] et al., from the sputum of a volunteer with chronic obstructive pulmonary disease. Ethical approval was obtained from the University of Brighton School of Pharmacy and Biomolecular Sciences Ethics Committee, under reference PABSREC 0509, and informed consent was obtained from the volunteer.

UNCN3T cells [2] = assay: Mucin secretion (ELLA) in response to inhaled drugs, UNCN3T on Geltrex-coated plastic; type: cell-based, human
Method: Wells were then washed three times with phosphate buffered saline (PBS) containing 0.05 % v/v Tween, 0.5 % w/v bovine gelatin type B (Sigma Aldrich), and blocked by incubation with PBS containing 1.0 % w/v gelatin at 37 °C for 1 h. […] Wells with samples from UNC[…] cells were incubated with biotinylated-Helix pomatia agglutinin prepared in the blocking solution. These wells were then washed before incubation with HRP-labelled streptavidin. Finally, plates containing samples from all cell lines were washed repeatedly and developed by the addition of substrate solution which consisted of o-phenylene diamine (Sigma […] tablet) prepared according to manufacturer's instructions, for 3 min at room temperature, after which the reaction was terminated by the addition of 20% (v/v) H2SO4. The absorbance at 492 nm was measured using an Ascent MultiskanTM plate reader (Thermo Fisher Scientific). The absorbance of the samples was compared with known mucin standards, purified by two rounds of density gradient ultracentrifugation, as described by […] et al., from the sputum of a volunteer with chronic obstructive pulmonary disease. Ethical approval was obtained from the University of Brighton School of Pharmacy and Biomolecular Sciences Ethics Committee, under reference PABSREC 0509, and informed consent was obtained from the volunteer.

UNCN3T cells [3] = assay: TEER of UNCN3T cells before and after AMP-PNP; conditions: AMP-PNP 100 μM
UNCN3T cells [4] = assay: Cytokine release (ELISA) in response to inhaled drugs, UNCN3T
Method: SPOC1 or UNCN3T cells were seeded onto 24-well tissue culture treated plates, pre-coated with a 1/20 dilution of Geltrex™. Cells were seeded at 5 × 10^4 cells/well and grown to confluence in the appropriate maintenance medium. The cells were washed four times (20 min per wash) with TB appropriate to each cell line after which the cells were incubated for 30 min at 37 °C 5% CO2/95% air in control or drug solutions prepared in the appropriate transport buffer. […] Samples from UNCN3T cells (human origin) were analysed for IL-6 and IL-8. Cytokines and mucins were quantified using ELISAs (Legend Max, BioLegend San Diego, CA) according to the manufacturer’s instructions and ELLA respectively.

[5] = UNCN3T control wells treated with 100 μM AMP-PNP at 100 min, by 120 min, data not shown

Structure (SMILES): Nc1ncnc2c1ncn2[C@@H]1O[C@H](COP(=O)([O-])OP(=O)([O-])NP(=O)([O-])[O-])[C@@H](O)[C@H]1O.[Li+].[Li+].[Li+].[Li+] [AMP-PNP, adenylyl-imidodiphosphate, tetralithium salt]
- Effect on quantity of mucin secreted (Calu-3 cells): no significant increase
- Effect on quantity of mucin secreted (Calu-3 cells; listed as adenylyl-imidodiphosphate): not
- Fold increase in mucin secretion (UNCN3T cells [1]; [5]): 1.5 fold
- Mucin level after AMP-PNP (UNCN3T cells [1]; [5]): 4.34 ± 0.83 ng/well
- Fold increase in mucin secretion (UNCN3T cells [1]; UNCN3T, AMP-PNP 100 μM, vs baseline): 2 fold
- Mucin level after AMP-PNP (UNCN3T cells [1]; UNCN3T, AMP-PNP 100 μM, baseline 2.91 ± 0.92): 5.44 ± 1.63 ng/well
- Mucin secretion (UNCN3T cells [2]; UNCN3T on Geltrex-coated plastic, AMP-PNP 100 μM, 30 min, medium alone 0.94 ± 0.04): 3.22 ± 0.24 ng/well
- Effect upon TEER (UNCN3T cells [3]): no discernible effect
- Mean TEER after treatment (UNCN3T cells [3]; before treatment 229 ± 20): 219 ± 19 Ω.cm^2

Structure (SMILES): O=S(=O)([O-])[O-].[O]=[V+2] [VOSO4, Vanadium (IV) oxide sulfate]
- IL-6 release, fold that of culture medium (UNCN3T cells [4]): 66 fold
- IL-6 release (UNCN3T cells [4]; VOSO4 20 μg mL^−1, 30 min, medium alone 1.9 ± 0.3): 124.0 ± 6.5 pg/mL
- IL-8 release (UNCN3T cells [4]; VOSO4 20 μg mL^−1, 30 min, medium alone 12.5 ± 0.6): 251.1 ± 14.5 pg/mL

Structure (SMILES): CCCC1O[C@@H]2C[C@H]3[C@@H]4CCC5=CC(=O)C=C[C@]5(C)[C@H]4[C@@H](O)C[C@]3(C)[C@]2(C(=O)CO)O1 (some centres unmarked) [budesonide]
- Effect on IL-8 release (UNCN3T cells [4]; 20 μM, 30 min): significantly increased
- Effect on mucin secretion (UNCN3T cells [2]; UNCN3T, inhaled drugs, vs culture medium alone): no effect
